Test results reported in ChEMBL document CHEMBL6096727, “Structure-Based Rational Design and Evaluation of BET-Aurora Kinase Dual-Inhibitors for Treatment of Cancers” (J Med Chem, 2025).

molecular target: Cyclin-dependent kinase 9 (Homo sapiens) (UniProt P50750); conditions: dose 100.0 nM
Sequence (P50750 whole entry): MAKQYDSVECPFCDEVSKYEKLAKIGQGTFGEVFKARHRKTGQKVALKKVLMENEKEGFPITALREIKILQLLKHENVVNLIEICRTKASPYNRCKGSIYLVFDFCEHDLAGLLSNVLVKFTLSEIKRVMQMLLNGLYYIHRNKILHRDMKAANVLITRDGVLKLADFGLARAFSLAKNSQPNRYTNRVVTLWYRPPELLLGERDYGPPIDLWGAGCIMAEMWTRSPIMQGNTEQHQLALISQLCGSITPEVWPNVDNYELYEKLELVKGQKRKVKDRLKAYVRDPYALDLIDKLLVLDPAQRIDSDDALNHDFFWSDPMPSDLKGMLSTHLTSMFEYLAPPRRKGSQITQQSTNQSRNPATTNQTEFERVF
Description: Inhibition of CDK9 (unknown origin) using caliper substrate CTD3 at 100 nM by mobility shift assay relative to control

**Q.** Which inhibition does the source give for CC[C@@H]1C(=O)N(C)c2ccc(Nc3ncc(F)c(-c4c(C5CCC5)nn(C)c4C)n3)cc2N1C(C)C here?
**A.** 10%

**Q.** For CC[C@@H]1C(=O)N(C)c2ccc(Nc3ncc(F)c(-c4c(C5CC5)nn(C)c4C)n3)cc2N1C(C)C, which inhibition is on record?
**A.** 19%

**Q.** For CC(C)N1c2cc(Nc3nccc(Nc4cc(C5CC5)nn4C)n3)ccc2N(C)C(=O)[C@H]1C, which inhibition is on record?
**A.** 3.8%

**Q.** Which inhibition does the source give for Cc1nn(C)c(C2CC2)c1-c1ccnc(Nc2ccc3c(c2)N(C(C)C)[C@H](C)C(=O)N3C)n1 here?
**A.** 3.4%

**Q.** With Cc1nn(C(C)C)cc1-c1ccnc(Nc2ccc3c(c2)N(C(C)C)[C@H](C)C(=O)N3C)n1 as the compound, how does the inhibition read?
**A.** 2.5%

**Q.** With Cc1c(-c2nc(Nc3ccc4c(c3)N(C(C)C)[C@H](C)C(=O)N4C)ncc2Cl)c(C2CC2)nn1C as the compound, how does the inhibition read?
**A.** 23%

**Q.** For CC(C)N1c2cc(Nc3nccc(-c4c[nH]nc4C4CCCCC4)n3)ccc2N(C)C(=O)[C@H]1C, which inhibition is on record?
**A.** 56%

**Q.** How did the inhibition turn out when Cc1c(-c2ccnc(Nc3ccc4c(c3)N(C(C)C)[C@H](C)C(=O)N4C)n2)cnn1C was run?
**A.** 25%

**Q.** How did the inhibition turn out when CC(C)N1c2cc(Nc3nccc(Nc4cc(C(C)(C)C)nn4C)n3)ccc2N(C)C(=O)[C@H]1C was run?
**A.** 0%

**Q.** With CC(C)N1c2cc(Nc3nccc(-c4cn[nH]c4)n3)ccc2N(C)C(=O)[C@H]1C as the compound, how does the inhibition read?
**A.** 73%

**Q.** How did the inhibition turn out when CC(C)N1c2cc(Nc3nccc(-c4ccnn4C)n3)ccc2N(C)C(=O)[C@H]1C was run?
**A.** -1.3%

**Q.** How did the inhibition turn out when CC(C)N1c2cc(Nc3nccc(-c4ccnn4C(C)C)n3)ccc2N(C)C(=O)[C@H]1C was run?
**A.** 14%

**Q.** Cc1c(-c2ccnc(Nc3ccc4c(c3)N(C3CCCC3)[C@H](C)C(=O)N4C)n2)c(C2CC2)nn1C was tested. Which inhibition did it give?
**A.** 4.6%

**Q.** With Cc1c(-c2nc(Nc3ccc4c(c3)N(C(C)C)[C@H](C)C(=O)N4C)ncc2F)c(C2CCC2)nn1C as the compound, how does the inhibition read?
**A.** 18%

**Q.** Cc1c(-c2ccnc(Nc3ccc4c(c3)N(C(C)C)[C@H](C)C(=O)N4C)n2)c(C2CC2)nn1C was tested. Which inhibition did it give?
**A.** 6.5%

**Q.** Cc1c(-c2ccnc(Nc3cc(F)c4c(c3)N(C(C)C)[C@H](C)C(=O)N4C)n2)c(C2CC2)nn1C was tested. Which inhibition did it give?
**A.** -0.9%

**Q.** Cc1cnc(Nc2ccc3c(c2)N(C(C)C)[C@H](C)C(=O)N3C)nc1-c1c(C2CC2)nn(C)c1C was tested. Which inhibition did it give?
**A.** 0%

**Q.** With Cc1nn(C)cc1-c1ccnc(Nc2ccc3c(c2)N(C(C)C)[C@H](C)C(=O)N3C)n1 as the compound, how does the inhibition read?
**A.** 3.2%

**Q.** With CC[C@@H]1C(=O)N(C)c2ccc(Nc3ncc(F)c(-c4c(C5CCCC5)nn(C)c4C)n3)cc2N1C(C)C as the compound, how does the inhibition read?
**A.** 10%

**Q.** With Cc1nn(-c2ccccc2)cc1-c1ccnc(Nc2ccc3c(c2)N(C(C)C)[C@H](C)C(=O)N3C)n1 as the compound, how does the inhibition read?
**A.** 0.9%

**Q.** Cc1cc(Nc2ccnc(Nc3ccc4c(c3)N(C(C)C)[C@H](C)C(=O)N4C)n2)n(-c2ccccc2)n1 was tested. Which inhibition did it give?
**A.** 5.3%

**Q.** For CC(C)N1c2cc(Nc3nccc(-c4cc[nH]n4)n3)ccc2N(C)C(=O)[C@H]1C, which inhibition is on record?
**A.** 5.4%

**Q.** Which inhibition does the source give for Cc1c(-c2nc(Nc3ccc4c(c3)N(C(C)C)[C@H](C)C(=O)N4C)ncc2F)c(C2CCCC2)nn1C here?
**A.** 8.2%

**Q.** How did the inhibition turn out when Cc1cc(Nc2ccnc(Nc3ccc4c(c3)N(C(C)C)[C@H](C)C(=O)N4C)n2)n(C(C)(C)C)n1 was run?
**A.** -1.5%

**Q.** Which inhibition does the source give for CC(C)c1n[nH]cc1-c1ccnc(Nc2ccc3c(c2)N(C(C)C)[C@H](C)C(=O)N3C)n1 here?
**A.** 69%

**Q.** With Cc1n[nH]cc1-c1ccnc(Nc2ccc3c(c2)N(C(C)C)[C@H](C)C(=O)N3C)n1 as the compound, how does the inhibition read?
**A.** 53%

**Q.** With Cc1cc(Nc2ccnc(Nc3ccc4c(c3)N(C(C)C)[C@H](C)C(=O)N4C)n2)n(C)n1 as the compound, how does the inhibition read?
**A.** -0.3%

**Q.** Which inhibition does the source give for CC(C)N1c2cc(Nc3nccc(-c4ccn(C)n4)n3)ccc2N(C)C(=O)[C@H]1C here?
**A.** -1.4%

**Q.** With Cc1c(-c2nc(Nc3ccc4c(c3)N(C(C)C)[C@H](C)C(=O)N4C)ncc2F)c(C2CC2)nn1C as the compound, how does the inhibition read?
**A.** 15%

**Q.** Which inhibition does the source give for CC(C)N1c2cc(Nc3nccc(Nc4cc(-c5ccccc5)nn4C)n3)ccc2N(C)C(=O)[C@H]1C here?
**A.** -1.5%

**Q.** With CC(C)N1c2cc(Nc3nccc(-c4c[nH]nc4-c4ccccc4)n3)ccc2N(C)C(=O)[C@H]1C as the compound, how does the inhibition read?
**A.** 23%

**Q.** With CCc1n[nH]c(C2CC2)c1-c1ccnc(Nc2ccc3c(c2)N(C(C)C)[C@H](C)C(=O)N3C)n1 as the compound, how does the inhibition read?
**A.** 5.9%

**Q.** For Cc1c(-c2ccnc(Nc3ccc4c(n3)N(C(C)C)[C@H](C)C(=O)N4C)n2)c(C2CC2)nn1C, which inhibition is on record?
**A.** 0.8%

**Q.** Which inhibition does the source give for Cc1cc(Nc2ccnc(Nc3ccc4c(c3)N(C(C)C)[C@H](C)C(=O)N4C)n2)n(C(C)C)n1 here?
**A.** 0.5%

**Q.** For Cc1c(-c2ccnc(Nc3ccc4c(c3)N(C3CCC3)[C@H](C)C(=O)N4C)n2)c(C2CC2)nn1C, which inhibition is on record?
**A.** 9.1%

**Q.** How did the inhibition turn out when Cc1n[nH]c(C2CC2)c1-c1ccnc(Nc2ccc3c(c2)N(C(C)C)[C@H](C)C(=O)N3C)n1 was run?
**A.** 12%

**Q.** With CC(C)N1c2cc(Nc3nccc(-c4c[nH]nc4C4CCCC4)n3)ccc2N(C)C(=O)[C@H]1C as the compound, how does the inhibition read?
**A.** 62%

**Q.** With CC[C@@H]1C(=O)N(C)c2ccc(Nc3nccc(-c4c(C5CC5)nn(C)c4C)n3)cc2N1C(C)C as the compound, how does the inhibition read?
**A.** 2.7%

**Q.** With CC(C)N1c2cc(Nc3nccc(Nc4cc(C(C)(C)C)n[nH]4)n3)ccc2N(C)C(=O)[C@H]1C as the compound, how does the inhibition read?
**A.** 45%

**Q.** With CCn1cc(-c2ccnc(Nc3ccc4c(c3)N(C(C)C)[C@H](C)C(=O)N4C)n2)c(C)n1 as the compound, how does the inhibition read?
**A.** 9.4%

**Q.** Cc1n[nH]c(C)c1-c1ccnc(Nc2ccc3c(c2)N(C(C)C)[C@H](C)C(=O)N3C)n1 was tested. Which inhibition did it give?
**A.** 5.8%

**Q.** For CCn1nccc1-c1ccnc(Nc2ccc3c(c2)N(C(C)C)[C@H](C)C(=O)N3C)n1, which inhibition is on record?
**A.** 4.7%

**Q.** For Cc1n[nH]c(C2CCC2)c1-c1ccnc(Nc2ccc3c(c2)N(C(C)C)[C@H](C)C(=O)N3C)n1, which inhibition is on record?
**A.** 5.9%

**Q.** For Cc1cc(-c2ccnc(Nc3ccc4c(c3)N(C(C)C)[C@H](C)C(=O)N4C)n2)n(C)n1, which inhibition is on record?
**A.** -0.4%

molecular target: Bromodomain-containing protein 4 (Homo sapiens, UniProt O60885); assay: Inhibition of BRD4 BD1 (unknown origin); conditions: not given

**Q.** CC(C)N1c2cc(Nc3nccc(-c4ccccc4)n3)ccc2N(C)C(=O)C1C (stereo not drawn) was tested. Which IC50 did it give?
**A.** 193 nM

molecular target: T1, Bromodomain-containing protein 2 (Homo sapiens, UniProt P25440); assay: Inhibition of BRD2 BD1 (unknown origin) incubated for 2 to 4 hrs under dark condition by FP assay; conditions: not given
T1 sequence (P25440 whole entry): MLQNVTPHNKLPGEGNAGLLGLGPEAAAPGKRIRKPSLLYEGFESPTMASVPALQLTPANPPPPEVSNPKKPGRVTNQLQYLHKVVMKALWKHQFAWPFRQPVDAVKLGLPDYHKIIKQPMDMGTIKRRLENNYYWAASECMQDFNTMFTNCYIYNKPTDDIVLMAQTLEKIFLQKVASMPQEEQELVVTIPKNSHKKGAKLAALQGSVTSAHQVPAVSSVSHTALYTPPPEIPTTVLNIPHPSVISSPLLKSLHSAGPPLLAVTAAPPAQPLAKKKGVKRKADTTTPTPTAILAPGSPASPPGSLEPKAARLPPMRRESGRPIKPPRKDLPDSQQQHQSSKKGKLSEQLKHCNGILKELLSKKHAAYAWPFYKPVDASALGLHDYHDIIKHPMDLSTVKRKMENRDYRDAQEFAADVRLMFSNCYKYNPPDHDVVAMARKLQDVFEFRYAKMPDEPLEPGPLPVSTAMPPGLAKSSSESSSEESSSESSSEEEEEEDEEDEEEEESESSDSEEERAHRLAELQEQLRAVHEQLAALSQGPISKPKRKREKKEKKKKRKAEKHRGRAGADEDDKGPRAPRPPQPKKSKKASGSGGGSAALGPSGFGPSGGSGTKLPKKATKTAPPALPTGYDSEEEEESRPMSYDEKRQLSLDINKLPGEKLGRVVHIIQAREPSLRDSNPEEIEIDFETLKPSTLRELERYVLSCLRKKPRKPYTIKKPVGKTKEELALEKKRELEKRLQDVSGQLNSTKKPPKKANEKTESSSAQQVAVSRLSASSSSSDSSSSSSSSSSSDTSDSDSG

**Q.** With Cc1c(-c2nc(Nc3ccc4c(c3)N(C(C)C)[C@H](C)C(=O)N4C)ncc2F)c(C2CC2)nn1C as the compound, how does the IC50 read?
**A.** 35 nM

molecular target: T1, Bromodomain-containing protein 2; assay: Inhibition of BRD2 BD2 (unknown origin) incubated for 2 to 4 hrs under dark condition by FP assay; conditions: not given

**Q.** With Cc1c(-c2nc(Nc3ccc4c(c3)N(C(C)C)[C@H](C)C(=O)N4C)ncc2F)c(C2CC2)nn1C as the compound, how does the IC50 read?
**A.** 48 nM

test system: HCT-116; assay: Antiproliferative activity against human HCT-116 cells incubated for 48 hrs by 3H-thymidine uptake assay; format: functional, cell-based; conditions: not given

**Q.** Which IC50 does the source give for Cc1sc2c(c1C)C(c1ccc(Cl)cc1)=N[C@@H](CC(=O)OC(C)(C)C)c1nnc(C)n1-2 here?
**A.** 6150 nM
